Data: patent publication US20250027930A1, “SMALL MOLECULES FOR REPROGRAMING ANTI-TUMOR IMMUNITY OF T CELLS” (THE SCRIPPS RESEARCH INSTITUTE, priority 2021, published 2025)

Tests used:
[1] = system: MC38 TSA-reactive CD8+ TILs; assay: Rapid expansion of TSA-reactive CD8+ TILs from MC38 tumors; format: cell-based, mouse
Experimental: Sugars were added at the beginning or during the expansion of the TILs, and kept till the end of expansion. On expansion day 9, phenotypes of the expanded T cells were assessed, and the cells were used for adoptive transfer (FIG. 6E). For adoptive transfer, 0.5 million cells (B16-OVA or MC38) were inoculated subcutaneously on each mouse on day 0, Listeria monocytogenes-OVA (LM-OVA) infection 0.5 million CFU/mice on day 1, and blood analysis was recorded on day 7.

[2] = system: OT-1 cells; assay: OT-I-Tcf7GFP splenocyte screen: proliferation and Tim3−TCF-1+ ratio; format: cell-based, mouse; conditions: Day7, 50 mM
Experimental: Cell number was recorded on day 3 and day 7. On day 7, cells were stained with anti-CD8a (PerCP-Cy5.5) and anti-Tim3 (BV421) antibodies for flow cytometry or plate reader analysis.
Because TCF1 expression positively correlates with T cell stemness, the greater signal of EGFP a T cell expresses, the less differentiated the T cell is. Furthermore, if the compound also facilitates T cells proliferation, there would be more T cells per well in comparison to the untreated control. Therefore, a compound that not only maintains TCF-1 expression but also facilitates T cell growth would produce the strongest green fluorescence intensity. […] GlcA stands for glucuronic acid.

[3] = system: TILs from B16-OVA tumor; format: cell-based, mouse; conditions: day 7 rapid expansion
Experimental: TILs from B16-OVA tumor were isolated on day10 after inoculation, and Tim-3^−TCF/GFP^+ and Tim-3^+TCF/GFP^− in tetramer positive population were collected by live cell sorting (FIG. 15A). Phenotype features of Tim-3^−TCF/GFP^+ (FIG. 15B) and Tim-3^+TCF/GFP^− (FIG. 15C) were analyzed on day 7 after rapid expansion with feeder cells (TILs/feeder cell: 1/200) in the presence or absence of sugars.
To investigate which population that sugars mainly changed on T cells, B16-OVA cancer cells (7×10^5 cells) were subcutaneously inoculated into the left or right flank of TCF7^GFP mice expressing an EGFP fluorescent reporter from the endogenous Tcf7 locus, which enable us to track the expression of TCF-1 in live cells.

[4] = system: OT-I splenocytes; assay: OT-I splenocyte culture with purine/pyrimidine pathway compounds; format: cell-based, mouse; conditions: CD8+ T cells
Experimental: We therefore tested if purine and pyrimidine nucleotides have similar effects as N-Acetylneuraminic acid to help maintain less differentiated phenotypes of T cells during expansion. OT-I splenocytes were cultured with 500 nM […] peptide (OVA257-264) for three days at initial cell density of 1×10^6/mL to activate and expand the CD8+ T cell population. Different concentrations of the products or intermediates in purine or pyrimidine de novo synthesis pathways were added on day 3. The tested compounds include, e.g., guanosine, deoxyguanosine, adenosine, deoxyadenosine, inosine, xanthosine, orotidine, uridine, cytidine, deoxycytidine, thymidine, deoxythymidine, 5-Aminoimidazole-4-carboxamide ribonucleotide (AICAR), orotate, and dihydroorotate. The phenotype of expanded T cells were analyzed on day 5.

[5] = system: OT-1 splenocytes; assay: ROS, NADPH/NADP+ ratio and GSH/GSSG ratio of OT-1 splenocytes; format: cell-based, mouse; conditions: day 7 or 8, with IL-2; vs T cells not treated with sugar
Experimental: (§1) Naïve splenocytes from OT-1 mice were stimulated in vitro with OVA257-264 (500 nM) and IL-2 (60 IU/mL) in the presence or absence of an added compound for 3 days at a density of 1 million/mL (100 uL/well in 96/well plate), then expanded for 4 days. On day 7, PD-1, Tim3 and TCF-1 expressions were assessed by flow cytometry by staining cells with anti-CD8a (PerCP-Cy5.5), anti-Tim3 (BV421) and anti-TCF-1 (AF488) antibodies. For adoptive transfer, 0.6M B16-OVA cells (6×10^5) were inoculated subcutaneously 3 to 5 days before transfer in C57BL/6. On the day of adoptive transfer, mice were irradiated with 5 Gy X-ray, randomized according to tumor size, and intravenously injected with 0.2-0.3M of CD8+OT-1 T cells (2×10^5) expanded under different conditions, followed by administration of 50000 IU IL-2 every 12 h for four days. In the control group, mice were injected with cell-free vehicle only. For assessment of adoptive transfer of OT-1 CD8+ T cells activated and expanded by contacting the cells with fructose, on day 9 after transfer, anti-PD-1 (100 ug/mouse) was administered to the mice that had received T cell transfer. For assessment of adoptive transfer of OT-1 CD8+ T cells activated and expanded by contacting cells with Neu5Ac, on day 14 and day 21 after transfer, anti-PD-1 (100 ug/mouse) was administered to the mice that had received T cell transfer. The tumor growth was monitored every 3 to 4 days by measuring tumor size. Percent survival was also monitored and recorded within a period of 40 days post treatment. To evaluate tumor infiltrating OT-1 T cells, 0.6M B16-OVA cells (6×10^5) were inoculated subcutaneously 3 to 5 days before transfer in C57BL/6. On the day of adoptive transfer, mice were irradiated with 5 Gy X-ray, randomized according to tumor size, and intravenously injected with 0.2-0.3M of CD8+OT-1 T cells (2×10^5) expanded under different conditions, followed by administration of 50000 IU IL-2 every 12 h for four days. Tumors were then isolated and assessed for percentage of OT-I T cells from the total CD8+ T cells and OT-1 T cell number per gram of tumor tissue. To evaluate apoptosis, Naïve OT-1 splenocytes were stimulated by OVA257-264 (500 nM) without IL-2 in the presence of absence of sugars for 5 days followed by using Annexin V Apoptosis detection kit (Biolegend). […] To evaluate other cellular characteristics, naïve OT-1 splenocytes were stimulated by OVA257-264 (500 nM) with IL-2 (60 IU/mL) in the presence or absence of sugars for 7 or 8 days. On day 7 or 8 cells were taken and analyzed by assessment of ROS, NADPH/NADP+ ratio, and GSH/GSSG ratio.

[6] = system: OT-1 splenocytes; assay: Apoptosis (Annexin V) and IL-2 production of OT-1 splenocytes stimulated without IL-2; format: cell-based, mouse; conditions: OVA257-264 500 nM without IL-2, 5 days
Experimental: as §1

[7] = system: P14 cells; assay: P14 splenocyte in vitro activation, re-stimulation and expansion; format: cell-based, mouse; conditions: 50 mM; for Fold of proliferation, Normalized to W/O: P14 cells
[8] = system: HA-28z CAR T cells; assay: HA-28z (GD2) CAR T cell expansion with sugars; conditions: 50 mM, 14 days; both CD8^+ and CD4^+ CAR T cells
[9] = system: B16-OVA tumor; format: in vivo, mouse
Experimental: as §1

How did the “cell surface anti-CLA (Cutaneous Lymphocyte-associated Antigen) staining” value [1] turn out when `CC(=O)N[C@H]1[C@H]([C@H](O)[C@H](O)CO)OC(O)(C(=O)O)C[C@@H]1O` (stereo partly drawn) [Neu5Ac, N-acetylneuraminic acid] was run?
The value was “significant increase”.

What about the “Tim3^−TCF-1^+ ratio of CD8^+ T cells (%)” value ([2]; w/o 2.6) of the same compound?
Its value is 59.6%.

What about the activity at 50000 µM ([2]; Mus musculus, Splenocyte, 168 h, OT-1 cells, read-out: Proliferation fold, Normalized to W/O) of the same compound?
Its activity at 50000 µM is 143%.

What about the “reversal of sorted Tim-3^+TCF-GFP^− back to Tim-3^−TCF-GFP^+ phenotype” value [3] of the same compound?
Its value is “partially reverse”.

And the “maintenance of progenitor exhausted features of sorted Tim-3-TCF-GFP^+ TILs” value ([3]; vs without sugars)?
Its value is “maintain more Tim-3^−TCF/GFP^+ cells”.

And the “purine and pyrimidine biosynthesis end products and certain intermediates” value [4]?
Its value is “upregulated”.

And the GSH/GSSG ratio [5]?
Its GSH/GSSG ratio is “greater”.

What about the “NADPH/NADP+ ratio” value [5] of the same compound?
Its value is “greater”.

And the ROS [5]?
The ROS was “significantly less”.

What about the “viability and apoptotic characteristics” value ([6]; vs T cells not treated with sugar) of the same compound?
Its value is “enhanced viability and differential apoptotic characteristics”.

What about the “production of IL-2” value ([6]; vs no sugar) of the same compound?
The value was “significantly greater”.

What about the “Fold of proliferation, Normalized to W/O” value ([7]; Day6) of the same compound?
Its value is 2.29 fold.

What about the “Tim3^−TCF-1^+ ratio of CD8^+ T cells (%)” value ([7]; Day6, w/o 55.0) of the same compound?
The value was 97.4%.

What about the “Fold of proliferation, Normalized to W/O” value ([7]; Day9) of the same compound?
The value was 1.40 fold.

And the “Tim3^−TCF-1^+ ratio of CD8^+ T cells (%)” value ([7]; Day9, w/o 3.5)?
Its value is 71.3%.

What about the “CAR T cells proliferated times faster than cells expanded without sugars” value [8] of the same compound?
The value was 1.5-2 times.

And the “capabilities to control tumor growth by way of tumor volume and survival rate” value ([9]; treated OT-1 T cells used with anti-PD-1 antibody treatment, vs untreated T cells)?
Its value is “significantly better”.

What about the “tumor infiltrating OT-1 T cell numbers” value ([9]; treated T cells transferred to B16-OVA mice) of the same compound?
Its value is “increased”.
